The source of these data is patent publication US6133275A, “3-phenylpyrrolidine alpha-1 adrenergic compounds” (Abbott Laboratories, priority 1998, dated 2000).

Counter-ions that a name gives are not always drawn.

As usually defined, the Ki is a dissociation constant, usually derived from enzyme kinetics or from competition with a known ligand. A higher Ki goes with weaker binding.

The target of one assay is T1, α1a (Rat) (Rattus norvegicus, UniProt P43140).
T1 sequence (P43140 1-466): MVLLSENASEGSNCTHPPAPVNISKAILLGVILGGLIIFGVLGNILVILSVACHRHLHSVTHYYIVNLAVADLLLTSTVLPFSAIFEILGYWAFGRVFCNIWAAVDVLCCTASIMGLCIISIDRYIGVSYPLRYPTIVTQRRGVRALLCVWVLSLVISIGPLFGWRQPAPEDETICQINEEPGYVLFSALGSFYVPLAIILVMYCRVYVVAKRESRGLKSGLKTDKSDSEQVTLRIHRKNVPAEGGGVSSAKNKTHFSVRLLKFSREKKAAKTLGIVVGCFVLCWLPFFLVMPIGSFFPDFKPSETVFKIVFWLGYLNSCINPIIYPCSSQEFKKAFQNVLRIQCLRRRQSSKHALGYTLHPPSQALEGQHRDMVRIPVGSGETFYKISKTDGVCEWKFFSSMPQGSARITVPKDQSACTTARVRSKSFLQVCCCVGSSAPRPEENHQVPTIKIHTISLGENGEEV
The assay is described as follows: Radioligand binding, displacement of [3H]-prazosin from cloned α1a (rat) expressed in LTK cells. To be noted: [3H]-prazosin 0.2 nM; cloned rat α1a in LTK cell membranes; 25° C., 50 minutes.

The target of the next assay is T2, α1a (Bovine) (Bos taurus, UniProt P18130).
T2 sequence (P18130 1-466): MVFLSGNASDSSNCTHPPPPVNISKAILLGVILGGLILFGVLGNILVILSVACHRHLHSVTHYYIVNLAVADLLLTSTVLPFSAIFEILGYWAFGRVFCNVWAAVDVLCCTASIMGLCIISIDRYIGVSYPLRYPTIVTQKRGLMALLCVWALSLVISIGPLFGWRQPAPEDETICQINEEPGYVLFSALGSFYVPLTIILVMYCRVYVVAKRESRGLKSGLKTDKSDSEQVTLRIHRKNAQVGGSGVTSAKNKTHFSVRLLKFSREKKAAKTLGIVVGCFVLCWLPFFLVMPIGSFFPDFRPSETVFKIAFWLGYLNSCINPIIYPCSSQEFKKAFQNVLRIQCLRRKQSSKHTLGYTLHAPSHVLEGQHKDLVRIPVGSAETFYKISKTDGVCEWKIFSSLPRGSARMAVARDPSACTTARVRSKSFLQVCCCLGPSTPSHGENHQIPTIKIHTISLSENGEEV
As to the kind of experiment: Radioligand binding, displacement of [3H]-prazosin from cloned α1a (bovine) expressed in LTK cells. The following applies: [3H]-prazosin 0.2 nM; cloned bovine α1a in LTK cell membranes; 25° C., 50 minutes. (Loss of bound radioactivity is the signal in a displacement assay; it reports binding, not function.)

The next assay deals with T3, α1b (Hamster) (Mesocricetus auratus, UniProt P18841).
T3 sequence (P18841 1-515): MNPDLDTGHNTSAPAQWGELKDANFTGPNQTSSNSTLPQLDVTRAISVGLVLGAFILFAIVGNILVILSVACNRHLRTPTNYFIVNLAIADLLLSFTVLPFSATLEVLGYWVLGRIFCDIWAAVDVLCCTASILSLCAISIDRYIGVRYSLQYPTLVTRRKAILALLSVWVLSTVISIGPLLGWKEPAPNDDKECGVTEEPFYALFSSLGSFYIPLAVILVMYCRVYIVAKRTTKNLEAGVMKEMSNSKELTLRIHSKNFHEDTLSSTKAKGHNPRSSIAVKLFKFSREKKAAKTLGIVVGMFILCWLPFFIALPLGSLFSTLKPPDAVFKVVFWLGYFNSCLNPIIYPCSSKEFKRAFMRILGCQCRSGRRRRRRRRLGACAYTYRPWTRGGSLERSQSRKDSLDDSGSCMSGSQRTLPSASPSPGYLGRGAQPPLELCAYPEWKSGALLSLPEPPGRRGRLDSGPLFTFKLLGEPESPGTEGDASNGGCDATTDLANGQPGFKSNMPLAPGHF
The assay is described as follows: Radioligand binding, displacement of [3H]-prazosin from cloned α1b (hamster) expressed in LTK cells. To be noted: [3H]-prazosin 0.2 nM; cloned hamster α1b in LTK cell membranes; 25° C., 50 minutes.

In a further assay the target is T4, α1d (rat) (Rattus norvegicus, UniProt P23944).
T4 sequence (P23944 1-561): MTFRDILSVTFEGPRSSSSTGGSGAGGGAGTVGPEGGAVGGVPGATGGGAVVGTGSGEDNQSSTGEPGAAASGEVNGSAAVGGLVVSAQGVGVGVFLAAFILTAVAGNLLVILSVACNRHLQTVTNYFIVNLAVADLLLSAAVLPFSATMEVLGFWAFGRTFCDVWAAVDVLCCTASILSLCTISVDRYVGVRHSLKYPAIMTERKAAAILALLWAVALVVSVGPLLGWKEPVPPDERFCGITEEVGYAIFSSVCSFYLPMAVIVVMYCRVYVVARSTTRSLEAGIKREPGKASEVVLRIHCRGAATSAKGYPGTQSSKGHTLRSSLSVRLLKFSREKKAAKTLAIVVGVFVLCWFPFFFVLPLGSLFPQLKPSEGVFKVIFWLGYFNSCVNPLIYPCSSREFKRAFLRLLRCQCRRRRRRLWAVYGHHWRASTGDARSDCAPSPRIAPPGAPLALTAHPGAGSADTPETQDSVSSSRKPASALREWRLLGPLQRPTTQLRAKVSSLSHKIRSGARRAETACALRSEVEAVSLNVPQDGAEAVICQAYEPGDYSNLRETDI
The assay is described as follows: Radioligand binding, displacement of [3H]-prazosin from cloned α1d (rat) expressed in LTK cells. To be noted: [3H]-prazosin 0.2 nM; cloned rat α1d in LTK cell membranes; 25° C., 50 minutes.

A further assay deals with BPH patients. The following applies: cited from earlier work; for improvements in urinary flow rates and subjective symptom scores: longer term studies.

Regarding `COc1ccccc1[C@H]1CCN(CCCCn2c(=O)[nH]c3c(sc4ncc(-c5ccccc5)nc43)c2=O)C1` [Example 16, (R)-8-phenyl-3-[4-[3-(2-methoxyphenyl)-1-pyrrolidinyl]butyl]pyrazino[2',3':4,5]thieno[3,2-d]pyrimidine-2,4(1H,3H)-dione, Dihydrochloride], the Ki worked out at 1.61 nM on α1a (Rat), 0.09 nM at α1a (Bovine), 11.8 nM on α1b (Hamster) and 0.64 nM on α1d (rat).
The like results for `COc1ccccc1[C@H]1CCN(CCCCN2C(=O)c3ccccc3S2(=O)=O)C1` [Example 17, (R)-2-[4-[3-(2-methoxyphenyl)-1-pyrrolidinyl]butyl]-1,2-benzoisothiazol-3(2H)-one, 1,1-dioxide Monohydrochloride] were, in that order, 0.13 nM, 0.03 nM, 1.1 nM and 0.22 nM.
In the case of `COc1ccccc1[C@H]1CCN(CCCCN2C(=O)COc3ccccc32)C1` [Example 18, (R)-4-[4-[3-(2-methoxyphenyl)-1-pyrrolidinyl]butyl]-2H-1,4-benzoxazin-3(4H)-one, Monohydrochloride], the Ki on α1a (Rat) came out at 0.46 nM; on α1a (Bovine), 0.21 nM; on α1b (Hamster), 1.02 nM; at α1d (rat) it was 0.66 nM.
The like results for `COc1ccccc1[C@H]1CCN(CCCCN2C(=O)CCc3ccccc32)C1` [Example 19, (R)-3,4-dihydro-1-[4-[3-(2-methoxyphenyl)-1-pyrrolidinyl]butyl]-2(1H)-quinolinone Monohydrochloride] were, in that order, 0.57 nM, 0.15 nM, 0.93 nM and 0.23 nM.
With `COc1cccc([C@H]2CCN(CCn3c(=O)[nH]c4c(sc5cccnc54)c3=O)C2)c1` [Example 20, (R)-3-[2-[3-(3-methoxyphenyl)-1-pyrrolidinyl]ethyl]pyrido[2',3':4,5]thieno[3,2-d]pyrimidine-2,4(1H,3H)-dione, Dihydrochloride], the Ki was 46.3 nM on α1a (Rat), 12 nM at α1a (Bovine), 194 nM on α1b (Hamster) and 69.4 nM at α1d (rat).
For the compound `COc1cccc([C@H]2CCN(CCCn3c(=O)[nH]c4c(sc5cccnc54)c3=O)C2)c1` [Example 21, (R)-3-[3-[3-(3-methoxyphenyl)-1-pyrrolidinyl]propyl]pyrido[2',3':4,5]thieno[3,2-d]pyrimidine-2,4(1H,3 H)-dione, Dihydrochloride], the Ki on α1a (Rat) was 27.3 nM; at α1a (Bovine), 8 nM; at α1b (Hamster), 70.7 nM; at α1d (rat), 92.2 nM.
As to `COc1cccc([C@H]2CCN(CCCCn3c(=O)[nH]c4c(sc5cccnc54)c3=O)C2)c1` [Example 22, (R)-3-[4-[3-(3-methoxyphenyl)-1-pyrrolidinyl]butyl]pyrido[2',3':4,5]thieno[3,2-d]pyrimidine-2,4(1H,3H)-dione, Dihydrochloride], the Ki on α1a (Rat) stood at 5.11 nM; at α1a (Bovine), 1.52 nM; at α1b (Hamster) it was 18.4 nM; on α1d (rat), 11.5 nM.
Take `COc1cccc([C@H]2CCN(CCn3c(=O)[nH]c4c(sc5ncccc54)c3=O)C2)c1` [Example 23, (R)-3-[2-[3-(3-methoxyphenyl)-1-pyrrolidinyl]ethyl]pyrido[3',2':4,5]thieno[3,2-d]pyrimidine-2,4(1H,3H)-dione, Dihydrochloride]: the Ki is 134 nM at α1a (Rat), 27 nM on α1a (Bovine), 331 nM at α1b (Hamster) and 86.4 nM on α1d (rat).
As for `COc1cccc([C@H]2CCN(CCCCn3c(=O)[nH]c4c(sc5ncccc54)c3=O)C2)c1` [Example 24, (R)-3-[4-[3-(3-methoxyphenyl)-1-pyrrolidinyl]butyl]pyrido[3',2':4,5]thieno[3,2-d]pyrimidine-2,4(1H,3H)-dione, Dihydrochloride], the Ki at α1a (Rat) came to 7.37 nM; on α1a (Bovine), 2.81 nM; on α1b (Hamster), 20 nM; at α1d (rat) it was 5.19 nM.
As for `COc1ccccc1[C@@H]1CCN(CCn2c(=O)[nH]c3c(sc4ccccc43)c2=O)C1` [Example 25, (S)-3-[2-[3-(2-methoxyphenyl)-1-pyrrolidinyl]ethyl]-[1]benzothieno[3,2-d]pyrimidine-2,4(1H,3H)-dione Monohydrochloride], the Ki on α1a (Rat) stood at 9.33 nM; at α1a (Bovine) it was 1.67 nM; at α1b (Hamster), 5.61 nM; on α1d (rat), 3.86 nM.
Regarding `COc1cccc([C@@H]2CCN(CCn3c(=O)[nH]c4c(sc5ccccc54)c3=O)C2)c1` [Example 26, (S)-3-[2-[3-(3-methoxyphenyl)-1-pyrrolidinyl]ethyl]-[1]benzothieno[3,2-d]pyrimidine-2,4(1H,3H)-dione, Monohydrochloride], the Ki at α1a (Rat) turned out to be 6.79 nM; on α1a (Bovine), 1.24 nM; on α1b (Hamster), 10.7 nM; on α1d (rat), 3.04 nM.
Take `COc1ccccc1[C@@H]1CCN(CCn2c(=O)[nH]c3c(sc4cccnc43)c2=O)C1` [Example 27, (S)-3-[2-[3-(2-methoxyphenyl)-1-pyrrolidinyl]ethyl]pyrido[2',3':4,5]thieno[3,2-d]pyrimidine-2,4(1H,3 H)-dione, Dihydrochloride]: the Ki on α1a (Rat) was found to be 14.4 nM; on α1a (Bovine), 2.46 nM; on α1b (Hamster), 15.7 nM; on α1d (rat), 8.48 nM.
The corresponding values for `COc1ccccc1[C@@H]1CCN(CCCn2c(=O)[nH]c3c(sc4cccnc43)c2=O)C1` [Example 28, (S)-3-[3-[3-(2-methoxyphenyl)-1-pyrrolidinyl]propyl]pyrido[2',3':4,5]thieno[3,2-d]pyrimidine-2,4(1H,3H)-dione, Dihydrochloride] are 25.8 nM, 10.3 nM, 88.6 nM and 27.8 nM.
In the case of `COc1ccccc1[C@@H]1CCN(CCCCn2c(=O)[nH]c3c(sc4cccnc43)c2=O)C1` [Example 29, (S)-3-[4-[3-(2-methoxyphenyl)-1-pyrrolidinyl]butyl]pyrido[2',3':4,5]thieno[3,2-d]pyrimidine-2,4(1H,3H)-dione, Dihydrochloride], the Ki came to 1.98 nM on α1a (Rat), 0.69 nM on α1a (Bovine), 4.02 nM at α1b (Hamster) and 2.02 nM at α1d (rat).
Consider `COc1cc2nc(N3CCN(C(=O)C4COc5ccccc5O4)CC3)nc(N)c2cc1OC` (centres unmarked) [doxazosin], for which the “Clinical efficacy in BPH” value in the assay on BPH patients (BPH patients) is “Clinical efficacy of α1 antagonists in BPH has been demonstrated”. Besides, the “improvements in urinary flow rates and subjective symptom scores” value in the assay with BPH patients is “significant improvements in urinary flow rates and subjective symptom scores”.
`O=C(NC1CCN(CCc2c[nH]c3ccccc23)CC1)c1ccccc1` [indoramin]: the “improvements in urinary flow rates and subjective symptom scores” value in the assay with BPH patients was “significant improvements in urinary flow rates and subjective symptom scores”.
